# According to patent US8772268B2, “Bisphosphonamidate prodrugs and uses thereof” (The Johns Hopkins University, priority 2010, dated 2014):
# Entries after “also recorded” stand apart in the source; their conditions may differ.
# Legend:
# Assay type in all cases: cell-based
# NCI-H23 = experiment: NCI-60 DTP Human Tumor Cell Line Screen; conditions: NCI-H23, Non-Small Cell Lung Cancer, 48 h
# COLO 205 = experiment: NCI-60 DTP Human Tumor Cell Line Screen; conditions: COLO 205, Colon Cancer, 48 h
# [1] = system: PIP3 (prostate) cancer cell line; experiment: MTS cell proliferation assay, PIP3
# Experimental: (§1) Cell proliferation was determined using the CellTiter 96 Aqueous One Solution Cell Proliferation Assay MTS assay. A549 NSCLC cells were plated at 1.5×10^3 cells per well in flat bottom 96 well plates in 99 μL of media and allowed to adhere overnight. The drugs were serially diluted in 100% DMSO. For each drug treatment group, 1 μL of a 100× stock solution was added to each well for a final DMSO concentration of 1%. Cells were treated for 24, 48 or 72 hours. Cells were incubated with MTS dye (20 μL well^−1) for 40 min to 2 h. Absorbance at 490 nm was determined using a SpectraMax M2 (Molecular Devices) plate reader. The percent cell proliferation was calculated by converting the experimental absorbance to percentage of control, which was then plotted vs. drug concentration. The IC50 values were determined using a non-linear dose-response analysis in GraphPad Prism version 4.0. The IC50 is defined as the concentration of drug needed to cause a 50% decrease in proliferation compared to vehicle control.
# (§2) The activity of Clodronate prodrug (14) was tested against other cell lines, include prostate (PIP3) and breast (MDA-MB-453) cancer cells lines. Cell proliferation was determined using the CellTiter 96 Aqueous One Solution Cell Proliferation Assay MTS assay as discussed above. Results are shown in FIG. 22 and in the table below.
# SF-268 = experiment: NCI-60 DTP Human Tumor Cell Line Screen; conditions: SF-268, CNS Cancer, 48 h
# NCI/ADR-RES = experiment: NCI-60 DTP Human Tumor Cell Line Screen; conditions: Ovarian Cancer, 48 h
# SK-OV-3 = experiment: NCI-60 DTP Human Tumor Cell Line Screen; conditions: SK-OV-3, Ovarian Cancer, 48 h
# TK-10 = experiment: NCI-60 DTP Human Tumor Cell Line Screen; conditions: TK-10, Renal Cancer, 48 h
# DU145 = experiment: NCI-60 DTP Human Tumor Cell Line Screen; conditions: DU145, Prostate Cancer, 48 h
# EKVX = experiment: NCI-60 DTP Human Tumor Cell Line Screen; conditions: Non-Small Cell Lung Cancer, 48 h
# A498 = experiment: NCI-60 DTP Human Tumor Cell Line Screen; conditions: A498, Renal Cancer, 48 h
# MALME-3M = experiment: NCI-60 DTP Human Tumor Cell Line Screen; conditions: Melanoma, 48 h
# SF-539 = experiment: NCI-60 DTP Human Tumor Cell Line Screen; conditions: SF-539, CNS Cancer, 48 h
# MDA-MB-468 = experiment: NCI-60 DTP Human Tumor Cell Line Screen; conditions: MDA-MB-468, Breast Cancer, 48 h
# SNB-75 = experiment: NCI-60 DTP Human Tumor Cell Line Screen; conditions: SNB-75, CNS Cancer, 48 h
# RXF 393 = experiment: NCI-60 DTP Human Tumor Cell Line Screen; conditions: RXF 393, Renal Cancer, 48 h
# HCT-116 = experiment: NCI-60 DTP Human Tumor Cell Line Screen; conditions: HCT-116, Colon Cancer, 48 h
# RPMI-8226 = experiment: NCI-60 DTP Human Tumor Cell Line Screen; conditions: RPMI-8226, Leukemia, 48 h
# A549/ATCC = experiment: NCI-60 DTP Human Tumor Cell Line Screen; conditions: Non-Small Cell Lung Cancer, 48 h
# A549 NSCLC cells = experiment: Cell cycle analysis (PI and flow cytometry); conditions: A549, 0, 3, or 10 μM for 72 h, nocodazole for the last 24 h
# Experimental: PI and flow cytometry analysis were performed to study the effects of prodrug 14 on cell cycle.
# Briefly, A549 NSCLC cells were plated at 6.7×10^4 cells per well in flat bottom 6-well plates. Cells were dosed as described above. At 24, 48 or 72 hours following drug treatment, the media was collected, and the cells were washed with 1 mL PBS. Each well was trypsinized with 600 μL trypsin for 3-5 min. The trypsin reaction was quenched with an equal volume of media. All supernatants and washes were combined and centrifuged at 1,500 rpm for 5 min. Supernantant was decanted, and the cells were washed with 2 mL 1% FBS/PBS. Cells were centrifuged at 1,500 rpm for 5 min, and the supernatant was decanted. Cells were resuspended in 1 mL cold PBS, fixed in cold 70% ethanol and incubated at 4° C. for at least 30 min. Cells were centrifuged at 1,500 rpm for 5 min, washed with 1% FBS/PBS, and resuspended in 1 mL of 2:1 1% FBS in PBS/phosphate citric acid buffer (pH 7.8). Cells were incubated at room temperature for 5 min, then spun at 1,500 rpm for 5 min. The supernatant was decanted, the cells were resuspended and incubated in 300 μL PBS/FBS/PURNase solution (10 μg/mL propidium iodide and 3 K.U. of RNase A) for 30 mM at 37° C. Flow cytometry was performed to analyze DNA content, collecting ten thousand PI positive gated events per sample.
# [2] = system: MDA-MB-453 (breast) cancer cell line; experiment: MTS cell proliferation assay, MDA-MB-453
# Experimental: as §1, §2
structure (smiles),measurement,setting,value
CN(CCCCCl)P(=O)(OCc1ccc([N+](=O)[O-])cc1)C(Cl)(Cl)P(=O)(OCc1ccc([N+](=O)[O-])cc1)N(C)CCCCCl (stereo not drawn) [compound 14],Log10GI50,NCI-H23,−5.58
same,Log10LC50,NCI-H23,>−4.00
same,Log10TGI,NCI-H23,>−4.00
same,Log10GI50,COLO 205,−5.53
same,Log10LC50,COLO 205,>−4.00
same,Log10TGI,COLO 205,−5.10
same,EC50,[1],3 µM
same,Log10GI50,SF-268,−5.55
same,Log10LC50,SF-268,>−4.00
same,Log10TGI,SF-268,>−4.00
same,Log10GI50,NCI/ADR-RES,−5.58
same,Log10LC50,NCI/ADR-RES,>−4.00
same,Log10TGI,NCI/ADR-RES,>−4.00
same,Log10GI50,SK-OV-3,−5.19
same,Log10LC50,SK-OV-3,>−4.00
same,Log10TGI,SK-OV-3,>−4.00
same,Log10GI50,TK-10,−5.35
same,Log10LC50,TK-10,>−4.00
same,Log10TGI,TK-10,>−4.00
same,Log10GI50,DU145,−5.40
same,Log10LC50,DU145,>−4.00
same,Log10TGI,DU145,>−4.00
same,Log10GI50,EKVX,−5.50
same,Log10LC50,EKVX,>−4.00
same,Log10TGI,EKVX,>−4.00
same,Log10GI50,A498,−5.74
same,Log10LC50,A498,>−4.00
same,Log10TGI,A498,−5.17
same,Log10GI50,MALME-3M,−5.39
same,Log10LC50,MALME-3M,>−4.00
same,Log10TGI,MALME-3M,>−4.00
same,Log10GI50,SF-539,−5.44
same,Log10LC50,SF-539,>−4.00
same,Log10TGI,SF-539,>−4.00
same,Log10GI50,MDA-MB-468,−5.58
same,Log10LC50,MDA-MB-468,>−4.00
same,Log10TGI,MDA-MB-468,−5.07
same,Log10GI50,SNB-75,−5.65
same,Log10LC50,SNB-75,>−4.00
same,Log10TGI,SNB-75,−5.17
same,Log10GI50,RXF 393,−5.50
same,Log10LC50,RXF 393,>−4.00
same,Log10TGI,RXF 393,−4.38
same,Log10GI50,HCT-116,−5.58
same,Log10LC50,HCT-116,>−4.00
same,Log10TGI,HCT-116,>−4.00
same,Log10GI50,RPMI-8226,−5.57
same,Log10LC50,RPMI-8226,>−4.00
same,Log10TGI,RPMI-8226,>−4.00
same,Log10GI50,A549/ATCC,−5.37
same,Log10LC50,A549/ATCC,>−4.00
same,Log10TGI,A549/ATCC,>−4.00
same,effect on cell cycle,A549 NSCLC cells,G1 cell cycle arrest; also recorded: accumulation of cells in G1 phase is evident
same,EC50,[2],9 µM
